Source: US20060009478A1, “Methods for the treatment of back pain” (priority 2003, published 2006)

Tests used:
[1] = system: patients with moderate to severe chronic pain due to osteoarthritis of the hip or knee; test: Emax composite model of 6β-naltrexol plasma concentration versus percent change in pain intensity; conditions: for EC51 Estimate / EC52 Estimate / Emax1 Estimate / Emax2 Estimate: WinNonlin
Protocol: As discussed in more detail below, the percent change in pain intensity was the drug effect used in a modeling analysis of plasma concentration vs. drug effect.
The plasma concentration-effect data were fit to the Emax composite model using the software program WinNonlin®(commercially available from Pharsight Corporation of Mountain View, Calif.) and the command files developed by Gabrielsson et al. The plasma concentration-effect data represented as circles in FIG. 11 were evaluated mathematically and the plasma concentration-effect curve shown in FIG. 11 was determined by the program and command files. Similarly, the program and command files were used to determine the plasma concentration-effect curve shown in FIG. 12 based on the data represented as circles in FIG. 12.
The computer output (printout) of this process included EC51 and EC52 parameters, as well as parameters reflecting statistical evaluation of the data, such as coefficient of variation (CV %).
These parameters are based on the data for 6β-naltrexol plasma concentrations and reduction in pain from baseline pain intensity to final pain intensity from all subjects for whom plasma concentration data was obtained as described herein. These parameters are based on data from subjects receiving the BID dosing regimens and subjects receiving the QID dosing regimen. Estimate refers to the value estimated by the WinNonlin® program and command file for relating plasma concentrations to the pharmacodynamic effects such as percent reduction in pain intensity.
These parameters are based on the data (6β-naltrexol plasma concentrations and percent reduction in pain intensity) for subjects receiving BID dosing regimens.

[2] = Plasma concentrations of oxycodone, oxymorphone, noroxycodone, naltrexone and 6β-naltrexol by solid phase extraction LC-MS/MS
Excerpt: Patients with moderate-to-severe pain due to osteoarthritis of the hip or knee were randomly assigned to one of four treatment groups as shown in Table 3 of Example 1. Plasma samples were obtained for each patient at the beginning of Weeks 1, 2, 3 and at the end of dosing during Week 3.
For the analysis of linearity and dose proportionality, linear equation coefficients were obtained by averaging patient-specific slopes and intercepts obtained by within-patient least squares regression. This was done to account for the correlation among the repeated measurements due to the patient's contributing data at each dose level. The resulting slopes among treatment groups were compared by one-way analysis of variance (ANOVA), and a one-sample t-test assessed the common slope's difference from zero. A measure of deviation from linearity was constructed as the difference between the concentration at the middle dose versus the average of the concentrations at the lower and higher doses. Due to equal spacing of doses, this measure has expectation zero under the hypothesis of linearity. As above, ANOVA and t-tests were used to assess linearity.
To achieve symmetry, modified log transformations were used.

[3] = naltrexone hydrochloride in solution mixed with croscarmellose sodium in suspension; cited from earlier work
[4] = Total (BID and QID) data, curve of FIG. 11

Q: With `Oc1ccc2c3c1O[C@H]1[C@H](O)CC[C@@]4(O)[C@@H](C2)N(CC2CC2)CC[C@]314` [6β-naltrexol] as the molecule, how does the “EC51 Estimate” value ([1]; BID data, curve of FIG. 12) read?
A: Its value is 14.0 pg/mL.

Q: What about the “EC52 Estimate” value ([1]; BID data, curve of FIG. 12) of the same molecule?
A: Its value is 0.422 pg/mL.

Q: And the “Emax1 Estimate” value ([1]; BID data, curve of FIG. 12)?
A: Its value is 27.0 units.

Q: And the “Emax2 Estimate” value ([1]; BID data, curve of FIG. 12)?
A: Its value is 76.3 units.

Q: And the “EC52 parameter, 6β-naltrexol plasma concentration” value ([1]; Emax composite model, total (BID and QID) data, Table 26, effect = percent reduction in pain intensity, 6β-naltrexol as surrogate for naltrexone)?
A: The value was “about 0.439 μg/ml”.

Q: What about the “EC51 Estimate” value [1, 4] of the same molecule?
A: The value was 14.4 pg/mL.

Q: And the “EC52 Estimate” value [1, 4]?
A: Its value is 0.439 pg/mL.

Q: What about the “Emax1 Estimate” value [1, 4] of the same molecule?
A: The value was 26.8 units.

Q: And the “Emax2 Estimate” value [1, 4]?
A: Its value is 79.7 units.

Q: What about the “Plasma concentrations over the course of the study (sampled at the end of each treatment week)” value ([2]; FIG. 7, combination drug BID and QID) of the same molecule?
A: The value was “remained constant throughout the study”.

Q: For `O=C1CC[C@@]2(O)[C@H]3Cc4ccc(O)c5c4[C@@]2(CCN3CC2CC2)[C@H]1O5` [naltrexone], which “Fraction of naltrexone hydrochloride bound by croscarmellose sodium” value [3] is on record?
A: The value was “more than 90%”.

Q: Which results are given for `CN1CC[C@]23c4c5ccc(O)c4O[C@H]2C(=O)CC[C@@]3(O)[C@H]1C5` [oxymorphone]?
A: Mean plasma concentration versus dose level over the course of the study ([2]; FIGS. 1 and 2): increased linearly with increasing dose levels; Plasma concentration of oxymorphone (ng/mL) versus dose of oxycodone (mg/day): slope of linear equation ([2]; average of patient-specific regressions, slope p<0.001, t-test): 0.007153; Plasma concentration of oxymorphone versus dose of oxycodone (mg/day): intercept of linear equation ([2]; average of patient-specific within-patient least squares regressions, all active treatments): 0.0607 ng/mL
